Experimental data from a melting point compilation (Tetko et al.; mined from patent text by program, amines drawn as free bases though some values may be those of a salt).

| SMILES | melting point |
| --- | --- |
| COCC(=O)Nc1cc(C(N)=O)cc(NC(=O)COC)c1Cl | 208 to 209 °C |
| OCCOc1cc(O)ccc1-c1nc2cnccc2[nH]1 | 250 °C |
| Cc1ccc2c(c1)C=Cc1cc(C)ccc1C2c1cn(-c2cc(NCC(=O)Nc3nc(CC(=O)O)cs3)nc(N(C)C)n2)c(=O)[nH]c1=O | 220 °C |
| CCNC1(c2ccccc2Cl)C(=O)Nc2ccc(OCC)cc21 (stereo not drawn) | 195 to 200 °C |
| CCOC(=O)C=Cc1cc(OCc2ccccc2)ccc1-c1ccc(-c2cccc(C)c2)c(C(F)F)c1 | 124 to 126 °C |
| CC(=O)c1ccc2c(C(=O)c3ccc(OCCN4CCCCC4)cc3)c(-c3ccc(O)cc3)sc2c1 | 97 to 100 °C |
| O=C(CNC(=O)c1ccc([N+](=O)[O-])c(I(=O)=O)c1)OCC(Cl)(Cl)Cl | 128 to 130 °C |
| O=C(O)c1ccc(F)nc1F | 170 to 171 °C |
| O=C(NCCCCOc1ccc(-n2ccnc2)cc1)c1ccc(Cl)cc1 | 138 to 139 °C |
| COc1ccc(NS(=O)(=O)c2ccc([N+](=O)[O-])cc2OC)cc1 | 180 to 182 °C |
| COc1cc(COc2nn(-c3ccccc3)cc2/C=C2\SC(=O)N(C)C2=O)ccc1OCc1nc(-c2ccco2)oc1C | 215 to 216 °C |
| COc1cc(OC)cc(N2CCN(C(=O)Nc3cc(C(C)O)c(C)nc3OC)CC2)c1 (stereo not drawn) | 124 to 126 °C |
| CC(C)c1ccc(NCc2ccc(N(C)C)cc2)cc1 | 71 to 73 °C |
| CC(Cc1c[nH]c2ccccc12)(NCc1cc2ccccc2o1)C(=O)NCc1cccc(O)c1 (stereo not drawn) | 60 to 69 °C |
| Cc1c(C(F)(F)F)noc1NS(=O)(=O)c1ccccc1 | 99.5 to 100 °C |
| CC(C)Cc1c(C(=O)OC(C)(C)C)c(C(F)F)nc(C(F)(F)F)c1C(=O)OC(C)(C)C | 48 to 50 °C |
| N#Cc1ccc(Nc2nc(N)nc(Cc3c(Cl)ccc4[nH]ccc34)n2)cc1 | 267 to 268 °C |
| O=C(c1cccs1)c1cnn2c(-c3cccc(NCC=C(c4ccccc4)c4ccccc4)c3)ccnc12 | 156 to 158 °C |
| Cc1cn(C2CC(ON)C(CO)O2)c(=O)[nH]c1=O (stereo not drawn) | 81 °C |
| CCC(=O)c1ccc(CCNS(=O)(=O)c2ccc(OC)cc2)cc1 | 107 °C |
| CC(=O)Nc1c(C#N)c(OC(C)=O)c(C(C)=O)n1C | 140 to 141 °C |
| Cc1nc(-c2ccc(C(=O)N3Cc4cccnc4Nc4ccccc43)c(Cl)c2)n[nH]1 | 196 to 198 °C |
| Nc1c(Br)cc(C(=O)CCC(=O)O)cc1Br | 200 to 202 °C |
| CN(C)S(=O)(=O)n1cc(-c2ccc(Cl)cc2Cl)nc1C(N)=S | 184 to 187 °C |
| COCOCC(=O)c1cnc(NC(=O)C(C)(C)C)cn1 | 141 to 142 °C |
| CC(=O)CC(=O)NC1=Nc2ccc(Cl)cc2C(c2ccccc2)=NCC1 | 158 to 159 °C |

| SMILES | melting point |
| --- | --- |
| Cc1cc2c(cc1N1CCc3ccccc31)OC(=O)C2C (stereo not drawn) | 176 to 178 °C |
| CC(C)c1c(S(=O)(=O)c2ccc(O)cc2)cnn1C | 209 to 210 °C |
| Cc1nn(C)c2ccc(C(=O)O)c(C(=O)O)c12 | 228 to 232 °C |
| COc1cc2c(Nc3ccc(Cl)cc3F)ncnc2cc1OCCNC1CCCC1 | 171 to 173 °C |
| N#CCCC(=O)c1ccccc1 | 69 °C |
| COC(=O)c1nc(-c2ccc(Cl)c(OC)c2F)nc(N)c1C#C[Si](C)(C)C | 126 to 128 °C |
| COCCN1CC(c2ccccc2)NC1=S (stereo not drawn) | 76 to 78 °C |
| COC(=O)c1ccc(-c2nnc(CSCCOc3ccc(Cl)cc3Cl)o2)cc1 | 148 to 152 °C |
| CC#CCCn1ncc2c(NC(=O)CC)c3c(nc21)CN(CCC)C3=O | 130 to 132 °C |
| Cc1nc(CCCCCCC(=O)O)c(C(=O)O)s1 | 147 to 149 °C |
| Cc1c(C(=O)O)c(=O)c(-c2ccccc2)cn1C | 227 to 228 °C |
| O=C1OC(=O)c2c(Cl)ccc(Cl)c21 | 187 to 190 °C |
| CC(C)C(=O)Nc1c(N)cc(Br)cc1OCc1ccccc1 | 214 to 215 °C |
| CN(CCC#N)CCc1coc(-c2cc(C(C)(C)C)c(O)c(C(C)(C)C)c2)n1 | 104 to 105 °C |
| c1ccc2[nH]c(SCc3cn4ccccc4n3)nc2c1 | 220 to 222 °C |
| O=c1[nH]c2ccccc2nc1-c1cc(O)c(O)c([N+](=O)[O-])c1 | > 300 °C |
| O=CNc1nc(C(=NOC2CCCCC2)C(=O)O)cs1 | > 230 °C |
| CC(C(N)=O)c1ccc(NS(=O)(=O)C(C)C)cc1 (stereo not drawn) | 125 to 127 °C |
| Cc1oc(-c2ccccc2)nc1CCc1nc(CCl)cs1 | 89 to 90 °C |
| CCN(CC)CCNC(=O)c1c(I)ccc2c1Nc1ccccc1C2 | 106 to 108 °C |
| O=c1c(Cl)c(CCl)nc2scnn12 | 193 to 195 °C |
| COc1ccc(N2Cc3nc(C(=O)O)nn3-c3cccnc32)cc1 | 190 to 196 °C |
| Cc1cc(O)c(S(=O)CCC(C)C)c(=O)o1 (stereo not drawn) | 80 to 81 °C |
| CCN1c2ncccc2C(=O)N(C)c2ccc(-c3cnn(C)c3)nc21 | 65 to 67 °C |
| N#Cc1c(-c2ccc(Cl)c(Cl)c2)[nH]c(I)c1I | > 230 °C |
| N=C(NS(=O)(=O)C=Cc1ccc([N+](=O)[O-])cc1)c1ccc([N+](=O)[O-])cc1 | 173 to 177 °C |

| SMILES | melting point |
| --- | --- |
| CCCCC[C@H]1CC[C@H](c2ccc(F)c(F)c2)CC1 | -9.5 °C |
| COC(=O)C1=C(C)NC(=O)N(C(=O)OC)C1c1cccc(N)c1 (stereo not drawn) | 190 to 193 °C |
| CC(C)(O)Cn1c(CO)nc2c(N)nc3cc(-c4cccc(CO)c4)cnc3c21 | 227 to 229 °C |
| CN1Cc2c(Br)ncn2-c2cccc(Cl)c2C1=O | 178 to 179 °C |
| N#Cc1ccc2c(c1)S(=O)c1ccc(F)cc1C=C2 (stereo not drawn) | 240 to 243 °C |
| CC(=O)c1cnc(N)o1 | 214 to 215 °C |
| N#Cc1cc2c(nc1Cl)CCCCC2 | 126 to 127 °C |
| CC(C)(C)OC(=O)[C@H]1C[C@H](S(=O)(=O)c2ccccc2)[C@@H](c2ccccc2)N1C(=O)CNC(=O)Nc1cccc(C(=O)O)c1 (racemic) | 213 °C |
| Cc1ccc(C(=O)c2c(Cl)cc(Cl)cc2Cl)cc1C(C)c1ccc(=O)[nH]n1 (stereo not drawn) | 221 to 222 °C |
| CC(=O)Oc1cc(OCC(F)(F)C(F)(F)F)ccc1C(=O)O | 126 °C |
| O=P(c1ccccc1)(c1ccccc1)c1cc(P(=O)(c2ccccc2)c2ccccc2)ncn1 | 213 to 215 °C |
| O=C(c1ccccc1)c1c[nH]c2ncnc(Nc3cccc(CCO)c3)c12 | > 300 °C |
| CCOC(=O)C(=CNc1coc2ccc(Cl)cc2c1=O)C(=O)OCC | 143 to 145 °C |
| CC(=O)C1C(=O)N(CC2CC2)C(=O)N(c2ccccc2)C1=O (stereo not drawn) | 91 to 95 °C |
| CCOc1nc(C(=O)O)ccc1CN | 226 to 228 °C |
| CS(=O)(=O)N(CCc1ccc(Cl)cc1)Cc1cccnc1 | 77 to 78 °C |
| N#CCSc1ncc2ccccn12 | 120 to 122 °C |
| COc1ccc(-c2[nH]c3cn[nH]c(=O)c3c2Cl)cc1OC1CC1 | 293 to 294 °C |
| CC(=NNc1ccc(C2=NNC(=O)CC2)cc1)c1ccc(C#N)cc1 | 288 to 290 °C |
| O=C(Nc1ccc2cn[nH]c2c1)C(=O)N1CCC(Cc2ccccc2)CC1 | 160 to 164 °C |
| CCOC(=O)COc1ccc(C2=NNC(=O)CC2)cc1 | 127 to 129 °C |
| COc1cccc(C2OCC(C)(C)C2(O)C(C)(C)C)c1 (stereo not drawn) | 83 to 83.5 °C |
| CCOc1cc(CN2CCN(c3ccc(C(=O)NC)cc3C)CC2)cc2c1OC(C)C(=O)N2 (stereo not drawn) | 173 to 180 °C |
| CC(=O)Nc1ccc2c3c(cccc13)S(=O)(=O)N2CCCN1CC=C(c2ccccc2)CC1 | 178 °C |
| Cc1sc2ncc(C(=O)CC(O)c3ccccc3)n2c1C (stereo not drawn) | 113 °C |
| CCCN1CCCN(c2c(N3CCCN(CCC)CC3)c(=O)c2=O)CC1 | 90 to 92 °C |

| SMILES | melting point |
| --- | --- |
| CC(C)CC(NC(=O)N1CCCCCC1)C(=O)NC(Cc1ccc(C#Cc2ccccc2)cc1)C(=O)NC(C)(C)C (stereo not drawn) | 115 to 117 °C |
| CCOC(=O)c1c(C(F)(F)F)nn(C)c1N | 120 to 121 °C |
| Cc1ccc(-c2cn3cc(-c4cccc(CO)c4)ccc3n2)cc1 | 171 to 173 °C |
| CCC(C)(CC)c1nnc(NC(=S)c2c(OC)cccc2OC)s1 | 202 to 204 °C |
| CCOC(=O)c1c(C(F)F)nc(C(F)(F)F)c(C(=O)OCC)c1N | 29 to 30 °C |
| Cc1cn(-c2cc(C)c(N)c(Br)c2)c(C)n1 | 176 to 180 °C |
| COC(=O)CCN=c1sc2ccccc2s1 | 58 to 60 °C |
| Cc1ccc(C)c(C2C(=O)CC(C)(C)CC2=O)c1 | 168 to 170 °C |
| CCSCc1c(CCN(C)C)[nH]c2ccccc12 | 59 to 61 °C |
| O=C(c1ccccc1)C(O)CC(Cl)CCCl (stereo not drawn) | 39 to 41 °C |
| CCN1CCN(c2cc(-c3ccccc3)c3ccccc3n2)CC1 | 87 to 88 °C |
| CCCCn1c(=O)cc(NN)n(Cc2ccc(OC)cc2)c1=O | 167 to 170 °C |
| Cn1cnc2c(NC3CCCC3)ncnc21 | 108 to 109 °C |
| COc1cccc(-c2nc(-c3ccoc3)n[nH]2)c1 | 169 to 171 °C |
| CCOC(=O)N1CC1C(N)=O (stereo not drawn) | 125 to 128 °C |
| COc1cc(OCCN2CCOCC2)ccc1/C=C/c1cc(/C=C/c2ccc3cc[nH]c3c2)n[nH]1 | 113 to 122 °C |
| O=CN1CCN(c2nn(-c3ccccc3)c3ccccc23)CC1 | 130 to 132 °C |
| CCOC(=O)c1ncn2c1CN=C(c1ccccc1F)c1cc([N+](=O)[O-])ccc1-2 | 228 to 231 °C |
| CCc1nc2ccccc2n(-c2ccc(Cl)cc2)c1=O | 163 to 165 °C |
| c1ccc(-c2nc3ccc(N4CCC(N5CCCC5)CC4)nn3c2-c2ccncc2)cc1 | 165 to 166 °C |
| Cc1cc(C(F)(C(F)(F)F)C(F)(F)F)ccc1N1C(=O)c2cccc(Cl)c2C1NC(C)(C)CS(C)(=O)=O (stereo not drawn) | 154 to 156 °C |
| CS(=O)(=O)c1ccc(Oc2cc(OCC3CCOCC3)c3[nH]c(C4=NCC(CCO)S4)cc3c2)cc1 (stereo not drawn) | 104 to 105 °C |
| CC(C)N(Cc1ccccc1)C(=O)C(=O)N1CCN(c2ccccc2C(C)(C)C)CC1 | 65 to 68 °C |
| CCC(CN1C(=O)c2ccccc2C1=O)N1CCC(c2noc3cc(F)ccc23)CC1 (stereo not drawn) | 86 to 88 °C |
| CN(C)c1nn2nnnc2c2c1CCCC2 | 239 to 240 °C |
